Measured values taken from US20250195487A1, “FORMULATIONS OF A CSF-1R INHIBITOR” (Deciphera Pharmaceuticals, LLC, priority 2023, published 2025).
Structures can show the parent of a compound that is named as a salt.

Assays:
[1] = Solubility determination in deionized water; type: physicochemical; settings: ultrasonic treatment; for Solubility S: about 2 mg sample
[2] = Hygroscopic behavior test by dynamic vapor sorption (DVS); type: physicochemical; settings: for hygroscopic property, in words: dependence on relative humidity; for hygroscopic weight gain: 25° C., DVS
Text: The experimental method for characterizing the acid salt of the crystalline compound of the formula (I) by using dynamic vapor sorption (DVS) comprises the steps of putting a small amount of powder of the acid salt of the crystalline compound of the formula (I) in a precision sample tray in coordination with the instrument, and then sending to the instrument for testing after loading the samples. The model of all the instruments used in the dynamic vapor sorption in the present invention is DVS Intrinsic, the experimental parameters are set to that nitrogen is used as the carrier gas, the constant temperature is set to 25° C., the mass percent change rate per unit time (dm/dt) is equal to 0.01%/min as the determination criteria to achieve balance, the program humidity change cycle is set to that the initial relative humidity is 0%, the relative humidity at the end point is 90%, cycle is set to twice, and every 10% R.H. changes a step.
The inventors of the present invention measured the hygroscopic weight gain results (hygroscopic weight gain/pre-hygroscopic weight*100%) of various crystalline forms at each relative humidity by using the dynamic vapor sorption method, the hygroscopicity of different crystalline compounds was evaluated, and the results obtained were as follows: […]

Dissolution Phenomenon [1]	Solubility S [1]	hygroscopic weight gain ([2]; relative humidity 0.0 %) [%]	hygroscopic weight gain ([2]; relative humidity 10.0 %) [%]	hygroscopic weight gain ([2]; relative humidity 20.0 %) [%]	hygroscopic weight gain ([2]; relative humidity 30.0 %) [%]	hygroscopic weight gain ([2]; relative humidity 40.0 %) [%]	hygroscopic weight gain ([2]; relative humidity 50.0 %) [%]	hygroscopic weight gain ([2]; relative humidity 60.0 %) [%]	hygroscopic weight gain ([2]; relative humidity 70.0 %) [%]	hygroscopic weight gain ([2]; relative humidity 80.0 %) [%]	hygroscopic weight gain ([2]; relative humidity 90.0 %) [%]	hygroscopic weight gain of the crystal ([2]; relative humidity less than 80%)	SMILES	hygroscopic property, in words [2]
Non-settling	S < 1.5 mg/mL	–	–	–	–	–	–	–	–	–	–	–	Cc1nc(NC(=O)N2CCC(C)(C)C2=O)ccc1Oc1ccnc(-c2cnn(C)c2)c1 [Free compound]	–
Settled solution	S > 20 mg/mL	0.00	0.13	0.24	0.34	0.42	0.52	0.63	0.81	1.37	19.40	less than 1%	Cc1nc(NC(=O)N2CCC(C)(C)C2=O)ccc1Oc1ccnc(-c2cnn(C)c2)c1 [Hydrochloride crystalline form I]	when the relative humidity was increased to 90%, the hygroscopicity of the crystal was increased significantly
Settled solution	S > 20 mg/mL	0.00	0.11	0.18	0.20	0.24	0.31	0.88	8.93	12.44	23.15	–	Cc1nc(NC(=O)N2CCC(C)(C)C2=O)ccc1Oc1ccnc(-c2cnn(C)c2)c1 [Mesylate crystalline form II]	significantly increased when the relative humidity is increased to 70%
Settled solution	S > 20 mg/mL	0.00	0.83	1.79	2.42	2.88	3.32	3.77	4.44	5.17	10.61	–	Cc1nc(NC(=O)N2CCC(C)(C)C2=O)ccc1Oc1ccnc(-c2cnn(C)c2)c1 [Tartrate crystalline form I]	a good linear relationship is formed
Settled solution	S > 20 mg/mL	–	–	–	–	–	–	–	–	–	–	–	Cc1nc(NC(=O)N2CCC(C)(C)C2=O)ccc1Oc1ccnc(-c2cnn(C)c2)c1 [Citrate crystalline form I]	–
Settled solution	S > 20 mg/mL	–	–	–	–	–	–	–	–	–	–	–	Cc1nc(NC(=O)N2CCC(C)(C)C2=O)ccc1Oc1ccnc(-c2cnn(C)c2)c1 [Sulfate crystalline form I]	–
Settled solution	S > 20 mg/mL	0.02	1.19	1.86	2.32	2.78	3.37	3.97	4.66	5.46	6.383	–	Cc1nc(NC(=O)N2CCC(C)(C)C2=O)ccc1Oc1ccnc(-c2cnn(C)c2)c1 [Phosphate crystalline form I]	remains less hygroscopicity regardless of the ambient relative humidity
Settled solution	S > 20 mg/mL	–	–	–	–	–	–	–	–	–	–	–	Cc1nc(NC(=O)N2CCC(C)(C)C2=O)ccc1Oc1ccnc(-c2cnn(C)c2)c1 [Malate crystalline form I]	–
Settled solution	S > 20 mg/mL	–	–	–	–	–	–	–	–	–	–	–	Cc1nc(NC(=O)N2CCC(C)(C)C2=O)ccc1Oc1ccnc(-c2cnn(C)c2)c1 [Fumarate crystalline form I]	–
